Experimental data: ChEMBL document CHEMBL3885861, “Open TG-GATES”
Counter-ions that a name gives are not always drawn.

Species: Rattus norvegicus
Assay: Open TG-GATES - Regimen: Single
Format: toxicity, organism-based, Sprague-Dawley
Set-up: regimen Single, gender Male, age 6 weeks
Details: in vivo, ip, 80 mg/kg, route intraperitoneal injection, dose level Low; for APTT / Bas / Eos / Fbg / Hb / Ht / Lym / MCH / MCHC / MCV / Mono / Neu / PT / Plat / RBC / Ret / WBC: tissue Blood; for KIDNEY_L / KIDNEY_R / KIDNEY_TOTAL: tissue Kidney; for LIVER: tissue Liver; for A/G / ALP / ALT / AST / BUN / CRE / Ca / Cl / DBIL / GLC / IP / K / LDH / Na / PL / RALB / TBIL / TC / TG / TP / gamma-GTP: tissue Plasma

CCOC(=O)/C=C\C(=O)OCC [DIETHYL MALEATE] showed a TERMINAL_BW (3 h) of 197.8 g, an APTT (3 h) of 16.6 s and a Bas (3 h) of 0%. The Eos (3 h) was 0.4%, the Fbg (3 h) was 212.4 mg/dL and the Hb (3 h) was 13.4 g/dL. The Ht (3 h) was 40%, the Lym (3 h) was 73.4% and the MCH (3 h) was 22 pg. For the same compound, the MCHC (3 h) was 33.5%, the MCV (3 h) was 65.8 fL and the Mono (3 h) was 6.6%. The Neu (3 h) was 20%, the PT (3 h) was 12.3 s and the Plat (3 h) was 114.6 x10_4/uL. The RBC (3 h) was 608.6 x10_4/ul, the Ret (3 h) was 9.4% and the WBC (3 h) was 97 x10_2/uL. For the same compound, the KIDNEY_L (3 h) was 0.8 g, the KIDNEY_R (3 h) was 0.9 g and the KIDNEY_TOTAL (3 h) was 1.7 g. It also gave an LIVER (3 h) of 9 g, an A/G (3 h) of 1.9 and an ALP (3 h) of 802.4 IU/L. It also gave an ALT (3 h) of 41.2 IU/L, an AST (3 h) of 75.2 IU/L and a BUN (3 h) of 14.8 mg/dL. It also gave a CRE (3 h) of 0.5 mg/dL, a Ca (3 h) of 11 mg/dL and a Cl (3 h) of 106.6 meq/L. The DBIL (3 h) was 0.032 mg/dL, the GLC (3 h) was 194.2 mg/dL and the IP (3 h) was 10.2 mg/dL. It also gave a K (3 h) of 5.1 meq/L, an LDH (3 h) of 80.8 IU/L and a Na (3 h) of 140.4 meq/L. The PL (3 h) was 150.4 mg/dL, the RALB (3 h) was 3.6 g/dL and the TBIL (3 h) was 0.4 mg/dL. It also gave a TC (3 h) of 88 mg/dL, a TG (3 h) of 33 mg/dL and a TP (3 h) of 5.5 g/dL. It also gave a gamma-GTP (3 h) of 1 IU/L, a TERMINAL_BW (6 h) of 197.1 g and an APTT (6 h) of 16.8 s. It also gave a Bas (6 h) of 0%, an Eos (6 h) of 0.6% and a Fbg (6 h) of 207.2 mg/dL. It also gave a Hb (6 h) of 13.1 g/dL, a Ht (6 h) of 39.2% and a Lym (6 h) of 76.2%. It also gave an MCH (6 h) of 21.9 pg, an MCHC (6 h) of 33.4% and an MCV (6 h) of 65.4 fL. For the same compound, the Mono (6 h) was 5.2%, the Neu (6 h) was 17.8% and the PT (6 h) was 12.2 s. The Plat (6 h) was 116.6 x10_4/uL, the RBC (6 h) was 599.8 x10_4/ul and the Ret (6 h) was 9.5%. For the same compound, the WBC (6 h) was 108.8 x10_2/uL, the KIDNEY_L (6 h) was 0.9 g and the KIDNEY_R (6 h) was 0.9 g. For the same compound, the KIDNEY_TOTAL (6 h) was 1.7 g, the LIVER (6 h) was 8.4 g and the A/G (6 h) was 1.9. The ALP (6 h) was 753.2 IU/L, the ALT (6 h) was 36.4 IU/L and the AST (6 h) was 76.2 IU/L. For the same compound, the BUN (6 h) was 13 mg/dL, the CRE (6 h) was 0.5 mg/dL and the Ca (6 h) was 10.7 mg/dL. For the same compound, the Cl (6 h) was 106.8 meq/L, the DBIL (6 h) was 0.002 mg/dL and the GLC (6 h) was 194 mg/dL. For the same compound, the IP (6 h) was 10 mg/dL, the K (6 h) was 4.8 meq/L and the LDH (6 h) was 91 IU/L. It also gave a Na (6 h) of 139.2 meq/L, a PL (6 h) of 131.4 mg/dL and an RALB (6 h) of 3.4 g/dL. For the same compound, the TBIL (6 h) was 0.5 mg/dL, the TC (6 h) was 73.4 mg/dL and the TG (6 h) was 46 mg/dL. The TP (6 h) was 5.3 g/dL, the gamma-GTP (6 h) was 1 IU/L and the TERMINAL_BW (9 h) was 197.4 g. For the same compound, the APTT (9 h) was 16.7 s, the Bas (9 h) was 0% and the Eos (9 h) was 0.8%. The Fbg (9 h) was 223.2 mg/dL, the Hb (9 h) was 12.9 g/dL and the Ht (9 h) was 38.5%. It also gave a Lym (9 h) of 71.4%, an MCH (9 h) of 21.7 pg and an MCHC (9 h) of 33.6%. It also gave an MCV (9 h) of 64.7 fL, a Mono (9 h) of 3.8% and a Neu (9 h) of 24%. For the same compound, the PT (9 h) was 11.7 s, the Plat (9 h) was 117.4 x10_4/uL and the RBC (9 h) was 596.2 x10_4/ul. The Ret (9 h) was 9.2%, the WBC (9 h) was 102 x10_2/uL and the KIDNEY_L (9 h) was 0.8 g. For the same compound, the KIDNEY_R (9 h) was 0.9 g, the KIDNEY_TOTAL (9 h) was 1.7 g and the LIVER (9 h) was 8 g. It also gave an A/G (9 h) of 2.2, an ALP (9 h) of 735 IU/L and an ALT (9 h) of 35.2 IU/L. It also gave an AST (9 h) of 73.4 IU/L, a BUN (9 h) of 12.6 mg/dL and a CRE (9 h) of 0.4 mg/dL. The Ca (9 h) was 10.5 mg/dL, the Cl (9 h) was 107.2 meq/L and the DBIL (9 h) was 0.026 mg/dL. For the same compound, the GLC (9 h) was 204.6 mg/dL, the IP (9 h) was 9.6 mg/dL and the K (9 h) was 4.7 meq/L. For the same compound, the LDH (9 h) was 89.4 IU/L, the Na (9 h) was 139.6 meq/L and the PL (9 h) was 137.8 mg/dL. It also gave an RALB (9 h) of 3.6 g/dL, a TBIL (9 h) of 0.3 mg/dL and a TC (9 h) of 79.4 mg/dL. For the same compound, the TG (9 h) was 41 mg/dL, the TP (9 h) was 5.3 g/dL and the gamma-GTP (9 h) was 1.4 IU/L. For the same compound, the TERMINAL_BW (24 h) was 209.5 g, the APTT (24 h) was 15.5 s and the Bas (24 h) was 0%. The Eos (24 h) was 0.8%, the Fbg (24 h) was 225.8 mg/dL and the Hb (24 h) was 12.9 g/dL. For the same compound, the Ht (24 h) was 38.7%, the Lym (24 h) was 79.4% and the MCH (24 h) was 21.6 pg. It also gave an MCHC (24 h) of 33.4%, an MCV (24 h) of 64.7 fL and a Mono (24 h) of 4.6%. It also gave a Neu (24 h) of 15.2%, a PT (24 h) of 11.8 s and a Plat (24 h) of 123.2 x10_4/uL. It also gave an RBC (24 h) of 598.4 x10_4/ul, a Ret (24 h) of 9.8% and a WBC (24 h) of 94.6 x10_2/uL. It also gave a KIDNEY_L (24 h) of 0.9 g, a KIDNEY_R (24 h) of 0.9 g and a KIDNEY_TOTAL (24 h) of 1.8 g. For the same compound, the LIVER (24 h) was 10 g, the A/G (24 h) was 2.1 and the ALP (24 h) was 887.2 IU/L. The ALT (24 h) was 36 IU/L, the AST (24 h) was 63.6 IU/L and the BUN (24 h) was 17.4 mg/dL. The CRE (24 h) was 0.5 mg/dL, the Ca (24 h) was 11.1 mg/dL and the Cl (24 h) was 106 meq/L. The DBIL (24 h) was 0.03 mg/dL, the GLC (24 h) was 195.8 mg/dL and the IP (24 h) was 8 mg/dL. For the same compound, the K (24 h) was 5 meq/L, the LDH (24 h) was 94.4 IU/L and the Na (24 h) was 139.6 meq/L. The PL (24 h) was 148.8 mg/dL, the RALB (24 h) was 3.7 g/dL and the TBIL (24 h) was 0.3 mg/dL. The TC (24 h) was 82.6 mg/dL, the TG (24 h) was 93 mg/dL and the TP (24 h) was 5.5 g/dL. The gamma-GTP (24 h) was 1.6 IU/L.
